{"source": "patent US20110223642A1", "about": "“METHOD FOR INHIBITING BACTERIA GROWTH DURING ETHANOL FERMENTATION” (priority 2010, published 2011)", "system": "gram positive bacteria", "test": "Inhibition of gram positive bacteria growth in corn mash media", "format": "cell-based", "details": "typical corn mash media", "protocol": "If added just to a propagator the isopellets should be diluted down to 2 to 20 ppm in a fermenter. The hop acids employed are not limited to isomerized hop acids but can also be stabilized unisomerized hop pellets. The stabilized hop pellet, can be isomerized into isoalpha acids once placed into 70° C. or hotter hot water for thirty or more minutes. Once this isomerization is completed the mixture can be added to the yeast propagator or fermenter. The unexpected results include reduced levels of isoalpha acid required to inhibit gram positive bacteria growth, better antibacterial protection toward the end of fermentation, and increased yeast alcohol tolerance. Typically about 15 ppm of isoalpha acid is required to inhibit most gram positive bacteria growth in a typical corn mash media; however, we discovered that isomerized hop pellets made in accordance with the present invention can inhibit bacteria growth at an isoalpha acid dosage of about 12 ppm. While not wishing to be bound by theory, it is believed iso-pellets made in accordance with the present invention also contain beta acids, which are very effective at inhibiting gram positive bacteria growth. Unfortunately beta acids ordinarily are not soluble in corn mash or cereal fermentations, and thus their antibacterial effect is worthless. […]", "data": [{"substance": "isoalpha acid", "values": [{"measurement": "isoalpha acid dosage required to inhibit gram positive bacteria growth", "value": "about 15 ppm"}]}]}
